From PMC7843452, “Novel Hybrids of Podophyllotoxin and Coumarin Inhibit the Growth and Migration of Human Oral Squamous Carcinoma Cells” (Frontiers in Chemistry, 2021)
Like-named read-outs stand apart in the source and are kept apart here.

What was measured:
[1] = tested on: human oral squamous carcinoma A253 cells; assay: CCK-8 antiproliferative assay, A253; type: cell-based; details: for IC50: Homo sapiens, read-out: IC50 (μM) A253
Description: (§1) The in vitro antiproliferative activities of target compounds were investigated against human oral squamous carcinoma HSC-2, SCC-9, and A253 cells and human renal tubular epithelial HK-2 cells by Cell Counting Kit-8 (CCK-8) assay. The HSC-2, SCC-9, and A253 cell lines were purchased from Cobioer Biosciences (Nanjing, China), and HK-2 cell line was from KeyGen Biotech (Nanjing, China). The cells were placed into 96-well plates. After 24 h, cells were treated with 0.1% DMSO or different doses of test compounds for 72 h at 37°C in a CO2 incubator. Subsequently, 100 μl of CCK-8 test solution was added and incubated for 3 h at 37°C. The absorbance value of each well was measured at 450 nm.

[2] = tested on: human oral squamous carcinoma SCC-9 cells; assay: CCK-8 antiproliferative assay, SCC-9; type: cell-based; details: for IC50: Homo sapiens, read-out: IC50 (μM) SCC-9
Description: as §1

[3] = tested on: human renal tubular epithelial HK-2 cells; assay: CCK-8 assay on normal cells, HK-2; type: cell-based; details: Homo sapiens, HK-2, 72 h, read-out: IC50 (μM) HK-2
Description: as §1

[4] = tested on: human oral squamous carcinoma HSC-2 cells; assay: CCK-8 antiproliferative assay, HSC-2; type: cell-based; details: for IC50: Homo sapiens, read-out: IC50 (μM) HSC-2
Description: as §1

[5] = tested on: human breast MCF-7 cells; parameters: method as in Sun et al., 2017; details: in vitro; ref Sun et al., 2017; read-out: IC50 against MCF-7 cells; cited from earlier work
[6] = tested on: human non-small-cell lung carcinoma A549 cells; parameters: method as in Yang et al., 2019; details: ref Yang et al., 2019; read-out: IC50 against A549 cells; cited from earlier work
[7] = tested on: MGC-803 cells; parameters: method as in Huang et al., 2017; details: in vitro; ref Huang et al., 2017; cited from earlier work
[8] = tested on: NCI-H460 cells; parameters: method as in Huang et al., 2017; details: in vitro; ref Huang et al., 2017; cited from earlier work

SMILES	IC50 (μM) A253 ([1]; CCK-8, 72 h, mean ± SD)	IC50 ([1]; A253, CCK-8, 72 h, mean ± SD) [µM]	IC50 (μM) SCC-9 ([2]; CCK-8, 72 h, mean ± SD)	IC50 ([2]; SCC-9, CCK-8, 72 h, mean ± SD) [µM]	IC50 (μM) HSC-2 ([4]; CCK-8, 72 h, mean ± SD)	IC50 ([4]; HSC-2, CCK-8, 72 h, mean ± SD) [µM]	also measured
COc1cc([C@@H]2c3cc4c(cc3[C@H](O)[C@H]3COC(=O)[C@H]23)OCO4)cc(OC)c1OC [compound 1, Podophyllotoxin]	–	–	–	–	–	–	IC50 ([1]; A253, 72 h): 0.01 ± 0.001 µM; IC50 ([2]; SCC-9, 72 h): 0.009 ± 0.001 µM; IC50 [3]: 0.04 ± 0.006 µM; IC50 ([4]; HSC-2, 72 h): 0.011 ± 0.003 µM
COc1cc(C2c3cc4c(cc3C(OC(=O)CN3CCN(c5ccc(Cl)c(Cl)c5)CC3)C3COC(=O)C23)OCO4)cc(OC)c1OC (centres unmarked) [compound 5]	–	–	–	–	–	–	IC50 [5]: 2780 ± 150 nM
COc1ccc(-c2coc3cc(OCC(=O)OC4c5cc6c(cc5C(c5cc(OC)c(OC)c(OC)c5)C5C(=O)OCC45)OCO6)ccc3c2=O)cc1 (centres unmarked) [compound 6]	–	–	–	–	–	–	IC50 [6]: 753 ± 173 nM
Cc1cc(=O)oc2cc(O)ccc12 [compound 7, 4-methylumbelliferone]	no antiproliferative effect	> 100	no antiproliferative effect	> 100	no antiproliferative effect	> 100	–
O=c1ccc2ccc(O)cc2o1 [compound 8, 7-hydroxycoumarin]	no antiproliferative effect	> 100	no antiproliferative effect	> 100	no antiproliferative effect	> 100	–
Cc1cc(=O)oc2c(CN3CCN(C(=O)Nc4ccc(Br)c(F)c4)CC3)c(O)ccc12 [compound 10]	–	–	–	–	–	–	IC50 [7]: 2130 ± 750 nM; IC50 [8]: 1860 ± 730 nM
